Data from patent publication US20160024127A1, “COMPOUNDS AND USES THEREOF FOR THE MODULATION OF HEMOGLOBIN” (GLOBAL BLOOD THERAPEUTICS, INC., priority 2013, published 2016).

Test: Pharmacokinetics after oral administration of the monophosphate prodrug to rats (blood and plasma)
Format: in vivo
Experimental: A sodium salt of the monophosphate prodrug compound (Formula (V-B)) was administered orally to rats in a dose of 10 mg/kg (5 mL/kg). The vehicle administered was dimethylacetamide:PEG400:30% HβCD (5:25:70). The pharmacokinetic results are tabulated below and graphically illustrated in FIG. 1.

Structure (SMILES)	conversion of the prodrug to compound of formula (III) (oral, 10 mg/kg, rats)	whole blood Cmax following administration of the compound of formula (III), compared with Cmax after the monophosphate prodrug (compound of formula (III) administered at the same dose)
CC(C)n1nccc1-c1ncccc1COc1cccc(OP(=O)(O)O)c1C=O [Formula (V-B), 2-formyl-3-((2-(1-isopropyl-1H-pyraol-5-yl)pyridin-3-yl)methoxy)phenyl dihydrogen phosphate]	efficiently con veiled to compound of formula (III)	–
CC(C)n1nccc1-c1ncccc1COc1cccc(O)c1C=O [Formula (III), 2-hydroxy-6-([2-[1-(propan-2-yl)-1H-pyrazol-5-yl]pyridin-3-yl]methoxy)benzaldehyde]	–	equivalent
